Data on 14 compounds can be found in patent US8586755B2, “Substituted nicotinamides as KCNQ2/3 modulators” (Grünenthal GmbH, priority 2009, dated 2013).

The target of assay [1] is T1, KCNQ2/3 channels (Homo sapiens, UniProt O43525+O43526).
T1 construct: expressed in transfected cells
The assay can be described thus: Fluorescence assay using a voltage sensitive dye (fluorimetry). The format is cell-based. The following applies: CHO-K1 cells expressing KCNQ2/3 channels; for EC50: agonistic activity; for Fluorimetry % efficacy (retigabine 50 μM = 100%) / Emax: retigabine 50 μM = 100%; for Emax: read-out: Fluorimetry % efficacy (retigabine 50 μM = 100%). The essentials:
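CHO-K1 cells expressing human KCNQ2/3, loaded 45 min with red membrane-potential dye in ES buffer pH 7.4 (1 mM KCl), compound 30 min at room temperature. Fluorescence (525/560 nm) read before (F1) and at peak after KCl to 92 mM final (F2); agonism from F2/F1 change, EC50 fitted.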

The subject of assay [2] is Sprague-Dawley rats. The assay can be described thus: Low-intensity tail flick in the rat. The format is in vivo. The following applies: for inhibition in vivo at 10 mg/kg / inhibition in vivo at 21.5 mg/kg / ED50 / inhibition in vivo at 4.64 mg/kg: po; for inhibition in vivo at 10 mg/kg / inhibition in vivo at 21.5 mg/kg / inhibition in vivo at 4.64 mg/kg: read-out: Low-intensity tail flick rat p.o. % effect (dose [mg/kg]). From the text:
Low-Intensity Tail Flick in the Rat
The antinociceptive effectiveness of the test substance towards an acute, noxious thermal stimulus was studied in the focal ray (tail flick) test in the rat according to the method of D'Amour and Smith (J. Pharm. Exp. Ther. 72, 74 79 (1941)). Male Sprague-Dawley rats (breeder: Janvier, Le Genest St. Isle, France) weighing from 200 to 250 g were used for this purpose. The animals were accommodated individually in special test compartments and the base of the tail was exposed to the focused ray of an analgesia meter (model 2011, Rhema Labortechnik, Hofheim, Germany). 10 animals were used per group. Before a substance according to the invention was administered, the withdrawal latency (time from switching on of the focal ray to the sudden withdrawal of the tail) was determined twice at an interval of five minutes and the mean value was defined as the control latency time. The intensity of the focal ray was chosen so that the control latency time was 7 to 9 seconds. Measurement of the withdrawal latency was then repeated 10, 20, 30 and 60 minutes after peroral administration of substance. The antinociceptive action of the test substance was determined as the increase in the withdrawal latency time according to the following formula: MPE[%]=[(T1−T0)/(T2−T0)]×100 where: T0=control latency time before administration of substance, T1=latency time after administration of substance, T2=maximum exposure time to the focal ray (30 seconds), MPE=maximum possible effect.
Variance analysis (repeated measures ANOVA) was used to test for statistically significant differences between the substance group and the vehicle group. The level of significance was set at ≦0.05.

Regarding `O=C(NCC1CC2CCC1C2)c1cccnc1SCCCc1ccc(F)cc1` (stereo not drawn) [compound 51], in assay [1], the EC50 is 198 nM and the “Fluorimetry % efficacy (retigabine 50 μM = 100%)” value amounted to 192%. The “Low-intensity tail flick rat p.o. % effect (dose [mg/kg])” value in assay [2] (dose 21.5 mg/kg, MPE) is listed as 49 (21.5) %.

As to `O=C(NCC1CC2CCC1C2)c1cccnc1SCCCc1ccc(C(F)(F)F)c(F)c1` (stereo not drawn) [compound 53, N-(5-Bicyclo[2.2.1]heptanyl-methyl)-2-[3-[3-fluoro-4-(trifluoromethyl)-phenyl]-propylsulfanyl]-pyridine-3-carboxylic acid amide], in assay [1], the midpoint of the response, the EC50, lay at 302 nM and the Emax was 220%. Moreover, in assay [2] (MPE), the inhibition in vivo at 10 mg/kg was determined as 0%.

Regarding `O=C(NCC1CC2CCC1C2)c1cccnc1SCCCc1ccc(F)c(C(F)(F)F)c1` (stereo not drawn) [compound 54, N-(5-Bicyclo[2.2.1]heptanyl-methyl)-2-[3-[4-fluoro-3-(trifluoromethyl)-phenyl]-propylsulfanyl]-pyridine-3-carboxylic acid amide], in assay [1], a half-maximal response (EC50) required 133 nM and the Emax was 240%. The inhibition in vivo at 10 mg/kg in assay [2] (MPE) was 20%.

Turning to `O=C(NCc1ccc(F)cc1)c1cccnc1SCCCc1ccc(F)cc1` [compound 65, N-[(4-Fluorophenyl)-methyl]-2-[3-(4-fluorophenyl)-propylsulfanyl]-pyridine-3-carboxylic acid amide], in assay [1], the EC50 is 40 nM and the Emax came to 97%. In assay [2] (MPE), the inhibition in vivo at 10 mg/kg was found to be 49%.

For the compound `O=C(NCC1CC2CCC1C2)c1cccnc1SCCCc1cc(F)c(F)c(F)c1` (stereo not drawn) [compound 68, N-(5-Bicyclo[2.2.1]heptanyl-methyl)-2-[3-(3,4,5-trifluoro-phenyl)-propylsulfanyl]-pyridine-3-carboxylic acid amide], in assay [1], the EC50 was 65 nM and the Emax came to 280%. In addition, the inhibition in vivo at 10 mg/kg in assay [2] (MPE) worked out at 32%.

Turning to `CC(CCc1cccc(C(F)(F)F)c1)Sc1ncccc1C(=O)NCc1cccs1` (stereo not drawn) [compound 107, 2-[[1-Methyl-3-[3-(trifluoromethyl)phenyl]-propyl]sulfanyl]-N-(thiophen-2-yl-methyl)-pyridine-3-carboxylic acid amide], in assay [1], the EC50 worked out at 57 nM and the Emax is 119%. Besides, the inhibition in vivo at 21.5 mg/kg in assay [2] (dose 21.5 mg/kg, MPE) stood at 20%.

Turning to `CC(C)(C)CCNC(=O)c1cccnc1SCCC(F)(F)c1ccc(F)cc1` [compound 116, 2-[[3,3-Difluoro-3-(4-fluorophenyl)-propyl]sulfanyl]-N-(3,3-dimethyl-butyl)-pyridine-3-carboxylic acid amide], in assay [1], the EC50 stood at 62 nM and the Emax was 186%. The compound also had an ED50 in assay [2] of 5.4 mg/kg.

For `O=C(NCc1ccc(F)cc1)c1cccnc1SCCC(F)(F)c1ccc(F)cc1` [compound 124, 2-[[3,3-Difluoro-3-(4-fluorophenyl)-propyl]sulfanyl]-N-[(4-fluorophenyl)-methyl]-pyridine-3-carboxylic acid amide], in assay [1], the EC50 turned out to be 17 nM and the Emax was 114%. For the same compound, the ED50 in assay [2] was 3.5 mg/kg.

For `CC(C)CCNC(=O)c1cccnc1SCCCc1ccc(F)cc1` [compound 133, 2-[3-(4-Fluorophenyl)-propylsulfanyl]-N-(3-methyl-butyl)-pyridine-3-carboxylic acid amide], in assay [1], the EC50 was 106 nM and the Emax was 185%. Further, the inhibition in vivo at 10 mg/kg in assay [2] (MPE) was determined as 61%.

For `O=C(NCC1CCCCO1)c1cccnc1SCCCc1ccc(F)cc1` (stereo not drawn) [compound 134, 2-[3-(4-Fluorophenyl)-propylsulfanyl]-N-(tetrahydro-pyran-2-yl-methyl)-pyridine-3-carboxylic acid amide], in assay [1], a half-maximal effect (EC50) was put at 268 nM and the Emax was 224%. Also, in assay [2] (dose 21.5 mg/kg, MPE), the inhibition in vivo at 21.5 mg/kg is 40%.

For `O=C(NCC1C2CCC1CC2)c1cccnc1SCCC(F)(F)c1ccc(F)cc1` (stereo not drawn) [compound 164, N-(7-Bicyclo[2.2.1]heptanyl-methyl)-2-[[3,3-difluoro-3-(4-fluorophenyl)-propyl]sulfanyl]-pyridine-3-carboxylic acid amide], in assay [1], the EC50 was found to be 32 nM and the Emax was 287%. In addition, in assay [2] (MPE), the inhibition in vivo at 4.64 mg/kg came out at 20%.

For the compound `CC(C)CCNC(=O)c1cccnc1SCCC(F)(F)c1ccc(F)cc1` [compound 169], in assay [1], the EC50 was determined as 19 nM and the “Fluorimetry % efficacy (retigabine 50 μM = 100%)” value is 224%. In assay [2], the “Low-intensity tail flick rat p.o. ED50” value is “ED50 2.7 mg/kg”.

On to `CCCCNC(=O)c1cccnc1SCCC(F)(F)c1ccc(F)cc1` [compound 170, N-Butyl-2-[[3,3-difluoro-3-(4-fluorophenyl)-propyl]sulfanyl]-pyridine-3-carboxylic acid amide], for which, in assay [1], the midpoint of the response, the EC50, lay at 24 nM and the Emax was found to be 229%. Also, in assay [2] (MPE), the inhibition in vivo at 4.64 mg/kg amounted to 20%.

Turning to `O=C(NCC1CCCCO1)c1cccnc1SCCC(F)(F)c1ccc(F)cc1` (stereo not drawn) [compound 180, 2-[[3,3-Difluoro-3-(4-fluorophenyl)-propyl]sulfanyl]-N-(tetrahydro-pyran-2-yl-methyl)-pyridine-3-carboxylic acid amide], in assay [1], the EC50 was 47 nM and the Emax is 224%. Further, the inhibition in vivo at 10 mg/kg in assay [2] (MPE) was determined as 64%.

A word on the EC50: it is the concentration needed to bring the measured effect to its halfway point. A lower EC50 goes with an effect from little substance. The term ED50 denotes the midpoint of the dose-response relation. A lower ED50 goes with an effect at a small dose.
